Data as given in US10471046B2, “Method for treating, preventing, or reducing the risk of skin infection” (Melinta Subsidiary Corp., priority 2014, dated 2019).
≈ marks a conversion by molar mass, not a printed value.

These molecules were tested on S. aureus (assay: Minimum inhibitory concentrations (MICs) for S. aureus of exemplary compounds (Table 2)). Conditions: Staphylococcus aureus, minimum inhibitory concentrations for S. aureus; read-out: MICs.
Assay type: cell-based
How it was run: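 MICs (μg/mL) against S. aureus come from microtiter-tray dilution susceptibility testing per NCCLS M7-A5, comparing growth with and without compound.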

Going from `CC(=O)NC[C@H]1CN(c2ccc(-c3ccc(CN(C)Cc4cnc5ccccc5c4)cc3)c(F)c2)C(=O)O1` [Compound 4215, N-(3-{2-Fluoro-4′-[(methyl-quinolin-3-ylmethyl-amino)-methyl]-biphenyl-4-yl}-2-oxo-oxazolidin-5-(S)-ylmethyl)-acetamide] to `CC(=O)NC[C@H]1CN(c2ccc(-c3ccc(CNCc4ccc5ccccc5n4)cc3)c(F)c2)C(=O)O1` [Compound 4019, N-[3-(2-Fluoro-4′-{[(quinolin-2-ylmethyl)-amino]-methyl}-biphenyl-4-yl)-2-oxo-oxazolidin-5-(S)-ylmethyl]-acetamide], the MIC rises from 0.25 µg/mL (≈ 0.488 µM) to 0.5 µg/mL (≈ 1 µM) (2-fold).

Going from `CC(=O)NC[C@H]1CN(c2ccc(-c3ccc(CNCc4nnn[nH]4)cc3)c(F)c2)C(=O)O1` [Compound 4282, N-[3-(2-Fluoro-4′-{[(1H-tetrazol-5-ylmethyl)-amino]-methyl}-biphenyl-4-yl)-2-oxo-oxazolidin-5-(S)-ylmethyl]-acetamide] to `CC(=O)NC[C@H]1CN(c2ccc(-c3ccc(CNCc4cnn[nH]4)cc3)c(F)c2)C(=O)O1` [Compound 4267, N-[3-(2-Fluoro-4′-{[(3H-[1,2,3]triazol-4-ylmethyl)-amino]-methyl}-biphenyl-4-yl)-2-oxo-oxazolidin-5-(S)-ylmethyl]-acetamide], the MIC falls from 16 µg/mL (≈ 36.4 µM) to 0.25 µg/mL (≈ 0.57 µM) (64-fold).

First: CC(=O)NC[C@H]1CN(c2ccc(-c3ccc(CNCc4nccs4)c(F)c3)c(F)c2)C(=O)O1 [Compound 4154, N-[3-(2,3′-Difluoro-4′-{[(thiazol-2-ylmethyl)-amino]-methyl}-biphenyl-4-yl)-2-oxo-oxazolidin-5-(S)-ylmethyl]-acetamide]
Second: CC(=O)NC[C@H]1CN(c2ccc(-c3ccc(CNCc4ncc[nH]4)cc3)c(F)c2)C(=O)O1 [Compound 4091, N-[3-(2-Fluoro-4′-{[(1H-imidazol-2-ylmethyl)-amino]-methyl}-biphenyl-4-yl)-2-oxo-oxazolidin-5-(S)-ylmethyl]-acetamide]
The MIC of the first is 8-fold lower: 1 µg/mL (≈ 2.12 µM) for the first, 8 µg/mL (≈ 18.3 µM) for the second.

Going from `CC(=O)NC[C@H]1CN(c2ccc(-c3ccc(CNOCc4ccccc4)cc3)c(F)c2)C(=O)O1` [Compound 4263, N-{3-[4′-(Benzyloxyamino-methyl)-2-fluoro-biphenyl-4-yl]-2-oxo-oxazolidin-5-(S)-ylmethyl}-acetamide] to `CC(=O)NC[C@H]1CN(c2ccc(-c3ccc(CNCc4ccccn4)cc3)c(F)c2)C(=O)O1` [Compound 4024, N-[3-(2-Fluoro-4′-{[(pyridin-2-ylmethyl)-amino]-methyl}-biphenyl-4-yl)-2-oxo-oxazolidin-5-(S)-ylmethyl]-acetamide], the MIC falls from 2 µg/mL (≈ 4.31 µM) to 1 µg/mL (≈ 2.23 µM) (2-fold).

Going from `CCOC(=O)c1c[nH]c(SCCNCc2ccc(-c3ccc(N4C[C@H](CNC(C)=O)OC4=O)cc3F)cc2)n1` [Compound 5010, 2-[2-({4′-[5-(S)-(Acetylamino-methyl)-2-oxo-oxazolidin-3-yl]-2′-fluoro-biphenyl-4-ylmethyl}-amino)-ethylsulfanyl]-1H-imidazole-4-carboxylic acid ethyl ester] to `COC(=O)c1cc(CNCc2ccc(-c3ccc(N4C[C@H](CNC(C)=O)OC4=O)cc3F)cc2)oc1C` [Compound 4120, 5-[({4′-[5-(S)-(Acetylamino-methyl)-2-oxo-oxazolidin-3-yl]-2′-fluoro-biphenyl-4-ylmethyl}-amino)-methyl]-2-methyl-furan-3-carboxylic acid methyl ester], the MIC falls from 4 µg/mL (≈ 7.2 µM) to 1 µg/mL (≈ 1.96 µM) (4-fold).

Compared with `CC(=O)NC[C@H]1CN(c2ccc(-c3ccc(CNc4nc[nH]c4C(N)=O)cc3)c(F)c2)C(=O)O1` [Compound 2055, 5-({4′-[5-(S)-(Acetylamino-methyl)-2-oxo-oxazolidin-3-yl]-2′-fluoro-biphenyl-4-ylmethyl}-amino)-3H-imidazole-4-carboxylic acid amide], `CC(=O)NC[C@H]1CN(c2ccc(-c3ccc(CNc4ccon4)cc3)c(F)c2)C(=O)O1` [Compound 2050, N-{3-[2-Fluoro-4′-(isoxazol-3-ylaminomethyl)-biphenyl-4-yl]-2-oxo-oxazolidin-5-(S)-ylmethyl}-acetamide] is 16-fold lower in MIC: 4 µg/mL (≈ 8.57 µM) for the first, 0.25 µg/mL (≈ 0.589 µM) for the second.

`CC(=O)NC[C@H]1CN(c2ccc(-c3ccc(CNCC(=O)N4CCNCC4)cc3)c(F)c2)C(=O)O1` [Compound 4314, N-(3-{2-Fluoro-4′-[(2-oxo-2-piperazin-1-yl-ethylamino)-methyl]-biphenyl-4-yl}-2-oxo-oxazolidin-5-(S)-ylmethyl)-acetamide] and `CC(=O)NC[C@H]1CN(c2ccc(-c3ccc(CNCC4CCCN4)cc3)c(F)c2)C(=O)O1` (mixture of isomers) [Compound 4279, N-[3-(2-Fluoro-4′-{[(pyrrolidin-2-(R/S)-ylmethyl)-amino]-methyl}-biphenyl-4-yl)-2-oxo-oxazolidin-5-(S)-ylmethyl]-acetamide] are the same in MIC: 4 µg/mL (≈ 8.27 µM) for the first, 4 µg/mL for the second.

Going from `CC(=O)NC[C@H]1CN(c2ccc(-c3ccc(CNC(=O)C4(N)CC4)cc3)c(F)c2)C(=O)O1` [Compound 4321, 1-Amino-cyclopropanecarboxylic acid {4′-[5-(S)-(acetylamino-methyl)-2-oxo-oxazolidin-3-yl]-2′-fluoro-biphenyl-4-ylmethyl}-amide] to `CC(=O)NC[C@H]1CN(c2ccc(-c3ccc(CNC(=O)c4ccc5c(c4)OCO5)cc3)c(F)c2)C(=O)O1` [Compound 4014, Benzo[1,3]dioxole-5-carboxylic acid {4′-[5-(S)-(acetylamino-methyl)-2-oxo-oxazolidin-3-yl]-2′-fluoro-biphenyl-4-ylmethyl}-amide], the MIC rises from 2 µg/mL (≈ 4.54 µM) to 4 µg/mL (≈ 7.91 µM) (2-fold).

`CC(=O)NC[C@H]1CN(c2ccc(-c3ccc(Cn4nnc5c(=O)[nH]cnc54)cc3)c(F)c2)C(=O)O1` [Compound 1027, N-{3-[2-Fluoro-4′-(7-oxo-6,7-dihydro-[1,2,3]triazolo[4,5-d]pyrimidin-3-ylmethyl)-biphenyl-4-yl]-2-oxo-oxazolidin-5-(S)-ylmethyl}-acetamide] and `CC(=O)NC[C@H]1CN(c2ccc(-c3ccc(Cn4cc(C)nc4C)cc3)c(F)c2)C(=O)O1` [Compound 1068, N-{3-[4′-(2,4-Dimethyl-imidazol-1-ylmethyl)-2-fluoro-biphenyl-4-yl]-2-oxo-oxazolidin-5-(S)-ylmethyl}-acetamide] are the same in MIC: 1 µg/mL (≈ 2.09 µM) for the first, 1 µg/mL (≈ 2.29 µM) for the second.

First: CC(=O)NC[C@H]1CN(c2ccc(-c3ccc(CNC(=O)[C@@H]4C=CCN4C(=O)OC(C)(C)C)cc3)c(F)c2)C(=O)O1 [Compound 4305, 2-({4′-[5-(S)-(Acetylamino-methyl)-2-oxo-oxazolidin-3-yl]-2′-fluoro-biphenyl-4-ylmethyl}-carbamoyl)-2,5-dihydro-pyrrole-1-(S)-carboxylic acid tert-butylester]
Second: CCC(O)Cc1cn(CC(=O)NCc2ccc(-c3ccc(N4C[C@H](CNC(C)=O)OC4=O)cc3F)cc2)nn1 (stereo partly drawn) [Compound 4241, N-{4′-[5-(S)-(Acetylamino-methyl)-2-oxo-oxazolidin-3-yl]-2′-fluoro-biphenyl-4-ylmethyl}-2-[4-(2-hydroxy-butyl)-[1,2,3]triazol-1-yl]-acetamide]
The MIC of the first is 4-fold higher: 16 µg/mL (≈ 29 µM) for the first, 4 µg/mL (≈ 7.43 µM) for the second.

Compared with `CC(=O)NC[C@H]1CN(c2ccc(-c3ccc(CNCc4cc(C)on4)cc3)c(F)c2)C(=O)O1` [Compound 4229, N-[3-(2-Fluoro-4′-{[(5-methyl-isoxazol-3-ylmethyl)-amino]-methyl}-biphenyl-4-yl)-2-oxo-oxazolidin-5-(S)-ylmethyl]-acetamide], `CC(=O)NC[C@H]1CN(c2ccc(-c3ccc(CNCc4ccc(Br)nc4)cc3)c(F)c2)C(=O)O1` [Compound 4181, N-[3-(4′-{[(6-Bromo-pyridin-3-ylmethyl)-amino]-methyl}-2-fluoro-biphenyl-4-yl)-2-oxo-oxazolidin-5-(S)-ylmethyl]-acetamide] is 4-fold higher in MIC: 0.25 µg/mL (≈ 0.553 µM) for the first, 1 µg/mL (≈ 1.9 µM) for the second.

Going from `CC(=O)NC[C@H]1CN(c2ccc(-c3ccc(CNNC(=O)c4ccncc4)cc3)c(F)c2)C(=O)O1` [Compound 4236, N-(3-{2-Fluoro-4′-[N′-(pyridine-4-carbonyl)-hydrazinomethyl]-biphenyl-4-yl}-2-oxo-oxazolidin-5-(S)-ylmethyl)-acetamide] to `CC(=O)NC[C@H]1CN(c2ccc(-c3ccc(CNCc4cccc5cnccc45)cc3)c(F)c2)C(=O)O1` [Compound 4065, N-[3-(2-Fluoro-4′-{[(isoquinolin-5-ylmethyl)-amino]-methyl}-biphenyl-4-yl)-2-oxo-oxazolidin-5-(S)-ylmethyl]-acetamide], the MIC rises from 0.25 µg/mL (≈ 0.524 µM) to 2 µg/mL (≈ 4.01 µM) (8-fold).

First: CC(=O)NC[C@H]1CN(c2ccc(-c3ccc(C(NC(=O)OCc4ccccc4)c4nn[nH]n4)cc3)c(F)c2)C(=O)O1 (mixture of isomers) [Compound 1039, [{4′-[5-(S)-(Acetylamino-methyl)-2-oxo-oxazolidin-3-yl]-2′-fluoro-biphenyl-4-yl}-(2H-tetrazol-5-(R/S)-yl)-methyl]-carbamic acid benzyl ester]
Second: CC(=O)NC[C@H]1CN(c2ccc(-c3ccc(CNCc4ccc(Cl)cc4)cc3)c(F)c2)C(=O)O1 [Compound 4063, N-(3-{4′-[(4-Chloro-benzylamino)-methyl]-2-fluoro-biphenyl-4-yl}-2-oxo-oxazolidin-5-(S)-ylmethyl)-acetamide]
The MIC of the first is 64-fold higher: 128 µg/mL (≈ 229 µM) for the first, 2 µg/mL (≈ 4.15 µM) for the second.

First: CC(=O)NC[C@H]1CN(c2ccc(-c3ccc(CN(Cc4c[nH]cn4)Cc4cnc[nH]4)cc3)c(F)c2)C(=O)O1 [Compound 4068, N-[3-(2-Fluoro-4′-{[(1H-imidazol-4-ylmethyl)-(3H-imidazol-4-ylmethyl)-amino]-methyl}-biphenyl-4-yl)-2-oxo-oxazolidin-5-(S)-ylmethyl]-acetamide]
Second: CSc1ccc(CNCc2ccc(-c3ccc(N4C[C@H](CNC(C)=O)OC4=O)cc3F)cc2)s1 [Compound 4167, N-[3-(2-Fluoro-4′-{[(5-methylsulfanyl-thiophen-2-ylmethyl)-amino]-methyl}-biphenyl-4-yl)-2-oxo-oxazolidin-5-(S)-ylmethyl]-acetamide]
The MIC of the first is 64-fold higher: 128 µg/mL (≈ 247 µM) for the first, 2 µg/mL (≈ 4 µM) for the second.

`CC(=O)NC[C@H]1CN(c2ccc(-c3ccc(CNCc4ccc(N5CCOCC5)nc4)cc3)c(F)c2)C(=O)O1` [Compound 4118, N-[3-(2-Fluoro-4′-{[(6-morpholin-4-yl-pyridin-3-ylmethyl)-amino]-methyl}-biphenyl-4-yl)-2-oxo-oxazolidin-5-(S)-ylmethyl]-acetamide] and `CC(=O)NC[C@H]1CN(c2ccc(-c3ccc([C@H](CO)N4CCC4)cc3)c(F)c2)C(=O)O1` [Compound 1063, N-{3-[4′-(1-(R)-Azetidin-1-yl-2-hydroxy-ethyl)-2-fluoro-biphenyl-4-yl]-2-oxo-oxazolidin-5-(S)-ylmethyl}-acetamide] are the same in MIC: 8 µg/mL (≈ 15 µM) for the first, 8 µg/mL (≈ 18.7 µM) for the second.
